Test results reported in the supplement of paper PMC10307832.

How the values were obtained:
Assay in all cases: relative viability (nuclei count vs DMSO), 5 days (fraction); higher = more cells survive
RAF265 + Palbociclib = compound: Cn1c(Nc2ccc(C(F)(F)F)cc2)nc2cc(Oc3ccnc(-c4ncc(C(F)(F)F)[nH]4)c3)ccc21 [RAF265] + CC(=O)c1c(C)c2cnc(Nc3ccc(N4CCNCC4)cn3)nc2n(C2CCCC2)c1=O [Palbociclib] (partner 0.5 µM)
Summary of the method: (§1)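 Lung cancer cell lines in 1536-well plates got either a single drug or a fixed anchor-drug dose together with five library-drug doses (not always all listed) in √10 steps, by pin tool, on the day after seeding. Nuclei were counted after 5 days, and relative viability is the treated-to-vehicle ratio of nuclei counts. Values are medians of duplicate plates.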

IPA-3 + AZD7762 = compound: C1=CC=C2C(=C1)C=CC(=C2SSC3=C(C=CC4=CC=CC=C43)O)O [IPA-3] + NC(=O)Nc1cc(-c2cccc(F)c2)sc1C(=O)N[C@H]1CCCNC1 [AZD7762] (partner 0.2 µM)
Summary of the method: as §1

[1] = compound: Cc1ccc(-n2nc(C(C)(C)C)cc2NC(=O)Nc2ccc(OCCN3CCOCC3)c3ccccc23)cc1 [Doramapimod] + CC(=O)c1c(C)c2cnc(Nc3ccc(N4CCNCC4)cn3)nc2n(C2CCCC2)c1=O [Palbociclib] (partner 0.5 µM)
Summary of the method: as §1

Doramapimod + Linsitinib = compound: Cc1ccc(-n2nc(C(C)(C)C)cc2NC(=O)Nc2ccc(OCCN3CCOCC3)c3ccccc23)cc1 [Doramapimod] + C[C@]1(O)C[C@@H](c2nc(-c3ccc4ccc(-c5ccccc5)nc4c3)c3c(N)nccn32)C1 [Linsitinib] (partner 1 µM)
Summary of the method: as §1

Row | Cell Line | relative viability (RAF265 + Palbociclib; first compound 0.01 µM) | relative viability (RAF265 + Palbociclib; first compound 0.03162 µM) | relative viability (RAF265 + Palbociclib; first compound 0.1 µM) | relative viability (RAF265 + Palbociclib; first compound 0.3162 µM) | relative viability (RAF265 + Palbociclib; first compound 1 µM) | relative viability (IPA-3 + AZD7762; first compound 0.2 µM) | relative viability (IPA-3 + AZD7762; first compound 0.6325 µM) | relative viability (IPA-3 + AZD7762; first compound 2 µM) | relative viability (IPA-3 + AZD7762; first compound 6.325 µM) | relative viability (IPA-3 + AZD7762; first compound 20 µM) | relative viability ([1]; first compound 0.02 µM) | relative viability ([1]; first compound 0.06325 µM) | relative viability ([1]; first compound 0.2 µM) | relative viability ([1]; first compound 0.6325 µM) | relative viability ([1]; first compound 2 µM) | relative viability (Doramapimod + Linsitinib; first compound 0.02 µM) | relative viability (Doramapimod + Linsitinib; first compound 0.06325 µM) | relative viability (Doramapimod + Linsitinib; first compound 0.2 µM) | relative viability (Doramapimod + Linsitinib; first compound 0.6325 µM) | relative viability (Doramapimod + Linsitinib; first compound 2 µM)
1 | 201T | 0.344 | 0.326 | 0.369 | 0.377 | 0.338 | 0.641 | 0.584 | 0.724 | 0.699 | 0.828 | 0.363 | 0.351 | 0.321 | 0.368 | 0.336 | 1.05 | 1.07 | 0.971 | 1.03 | 0.958
2 | A-427 | 0.579 | 0.488 | 0.541 | 0.436 | 0.238 | 0.902 | 0.701 | 0.731 | 0.706 | 0.772 | 0.488 | 0.521 | 0.52 |  | 0.54 | 1.17 | 1.21 | 1.24 |  | 1.16
3 | ABC-1 | 0.633 | 0.644 | 0.646 | 0.528 | 0.47 | 0.888 | 0.766 | 0.737 | 0.992 | 0.965 | 0.642 | 0.732 | 0.683 | 0.845 | 0.817 | 0.876 | 0.944 | 0.744 | 0.942 | 0.806
4 | BEN | 0.459 | 0.477 | 0.509 | 0.468 | 0.441 | 0.726 | 0.656 | 0.801 | 0.767 | 0.672 | 0.462 | 0.459 | 0.504 | 0.387 | 0.541 | 0.834 | 0.893 | 0.906 | 0.769 | 0.854
5 | CAL-12T | 0.622 | 0.488 | 0.364 | 0.27 | 0.178 | 0.634 | 0.662 | 0.661 | 0.629 | 0.686 | 0.413 | 0.45 | 0.421 | 0.434 | 0.511 | 0.806 | 0.804 | 0.745 | 0.851 | 0.627
6 | EKVX | 0.429 | 0.405 | 0.416 | 0.249 | 0.276 | 0.858 | 0.708 | 0.72 | 0.654 | 0.744 | 0.427 | 0.351 | 0.366 | 0.337 | 0.342 | 1.03 | 0.972 | 0.902 | 1.15 | 0.95
7 | EMC-BAC-2 | 0.533 | 0.431 | 0.373 | 0.345 | 0.176 | 1.15 | 1.17 | 1.12 | 1.08 | 1.16 | 0.512 | 0.501 | 0.508 | 0.503 | 0.465 | 0.793 | 0.821 | 0.789 | 0.86 | 0.834
8 | EPLC-272H | 0.334 | 0.291 | 0.352 | 0.287 | 0.269 | 0.185 | 0.204 | 0.218 | 0.234 | 0.16 | 0.356 | 0.342 | 0.345 |  | 0.286 | 1.1 | 1.02 | 1.07 | 1.23 | 1.01
9 | H3255 | 0.323 | 0.316 | 0.321 |  | 0.331 | 1.03 | 0.919 | 0.865 | 0.912 | 1 | 0.334 | 0.302 | 0.318 | 0.292 | 0.345 | 1.02 | 0.908 | 0.913 | 0.97 | 0.871
10 | HARA | 0.298 | 0.277 | 0.235 | 0.215 | 0.178 | 0.341 | 0.324 | 0.339 | 1.04 | 0.273 | 0.232 | 0.275 | 0.262 | 0.297 | 0.264 | 0.943 | 0.901 | 0.904 | 0.987 | 0.805
11 | HCC-15 | 0.71 | 0.825 | 0.672 | 0.537 | 0.27 | 1.48 | 1.29 | 1.18 | 1.18 | 1.37 | 0.548 | 0.772 | 0.755 | 0.686 | 0.525 | 0.846 | 0.863 | 0.889 | 0.944 | 0.806
12 | HCC-44 | 1.01 | 0.908 | 0.96 | 1.04 | 1.01 | 0.963 | 0.998 | 1.02 | 1 | 0.907 | 0.96 | 1 | 0.97 | 0.904 | 0.891 | 0.662 | 0.669 | 0.675 | 0.634 | 0.626
13 | HCC-78 | 0.513 | 0.476 | 0.458 | 0.394 | 0.463 | 0.712 | 0.625 | 0.671 | 0.697 | 0.904 | 0.469 | 0.511 | 0.505 | 0.509 | 0.568 | 0.399 | 0.429 | 0.466 | 0.527 | 0.514
14 | HCC-366 | 0.403 | 0.312 | 0.286 | 0.205 | 0.137 | 0.443 | 0.337 | 0.334 | 0.432 | 0.316 | 0.397 | 0.379 | 0.373 | 0.412 | 0.351 | 0.561 | 0.515 | 0.475 | 0.673 | 0.548
15 | HCC-827 | 0.462 | 0.494 | 0.489 |  | 0.395 | 0.256 | 0.281 | 0.253 | 0.355 | 0.286 | 0.456 | 0.479 | 0.493 | 0.475 | 0.329 | 1 | 0.918 | 0.952 | 0.933 | 0.752
16 | HOP-62 | 0.416 | 0.457 | 0.423 | 0.392 | 0.216 | 0.787 | 0.828 | 0.657 | 0.606 | 0.661 | 0.369 | 0.483 | 0.497 | 0.524 | 0.485 | 0.88 | 1 | 1.17 | 0.91 | 0.992
